Measurements published in patent US4315010A, “Glaucine phosphate salts” (priority 1979, dated 1982).
Where a name gives a salt, the structure may show the parent alone. Read-outs that look alike come from different tables or passages of the source.

How the values were obtained:
[1] = assay type: physicochemical; conditions: for Percentage Remaining after 3 months at, 40° C. / Percentage Remaining after 3 months at, 50° C. / Percentage Remaining after 3 months at, Ambient / assay after 12 months: syrup; for Percentage Remaining after 3 months at, 40° C. / Percentage Remaining after 3 months at, 50° C. / Percentage Remaining after 3 months at, Ambient: 131400 min; for assay after 12 months: 525600 min; for percent of original concentration retained in syrup: one month, d,l-glaucine phosphate 0.6 percent, others 0.2 percent, 43800 min
Procedure: Stability of d,l-glaucine phosphate was examined in the syrup vehicle of Example 4.
Syrups containing codeine phosphate, 0.2 percent contained 97.5, 104.5 or 100 percent, respectively, after one month at ambient temperature, 40° C. or 55° C. […] After three months, the percentage amount of antitussive agent remaining was as shown below.

[2] = system: guinea pigs; experiment: Antitussive test, citric acid aerosol-induced cough, oral dosing; assay type: in vivo; conditions: for ED50: Cavia porcellus, po, 1 h; for 95 percent confidence limits of the ED50: antitussive
Procedure: Separate groups of guinea pigs were orally administered various doses of a test compound, or distilled water for a control group. One hour after oral dosing, the guinea pigs were exposed to a 5 percent aerosol of citric acid for a 10 minute test period. The number of cough responses produced during the last five minutes of exposure to the citric acid aerosol was recorded and the dosage effect to suppress coughing in 50 percent of the guinea pigs (ED50) was calculated. An antitussive effect was recorded for a guinea pig when its total number of coughs during the 5 minute test period were at least two standard deviation units below the mean number of coughs per guinea pig in the control group. […];

[3] = system: guinea pigs; experiment: Antitussive test, citric acid aerosol-induced cough, intraperitoneal injection; assay type: in vivo; conditions: Cavia porcellus, ip
[4] = Solubility in cough syrup vehicle; assay type: physicochemical; conditions: cough syrup vehicle of Example 4
Procedure: A cough syrup vehicle formulation was prepared containing the following pharmaceutically-acceptable excipients:
Water g.s. to 4 liters total

[5] = Stability of syrup under continuous light in amber and flint glass bottles; assay type: physicochemical; conditions: one month, ambient temperature, continuous light about 2000 Foot-candles, 43800 min
Procedure: In a procedure similar to that of Example 5, syrup formulations were prepared, placed in amber glass bottles and transparent (flint) glass bottles, and held under conditions of ambient temperature with continuous exposure to light. (About 2000 Foot-candles of combined fluorescent and incandescent light, for 24 hours/day.)

[6] = system: monkeys; experiment: Abuse potential, self-administration in codeine-habituated monkeys (Deneau et al.); assay type: in vivo; conditions: codeine 100 micrograms/kilogram per injection; d,l-glaucine phosphate substituted at 50, 100, 200 and 400 micrograms per kilogram injection
From the text: The abuse potential of d,l-glaucine phosphate was studied in two monkeys in a procedure similar to that described by Deneau, et al., Psychopharmacologia 16(1):30-48, 1969.
In this procedure, the test monkeys are restrained and a catheter inserted into the external jugular vein for injection of test substances in response to pressing a bar lever by the monkey. The test monkeys are first habituated to self-administer codeine at a rate of 100 micrograms/kilogram per injection. The self-administration rate of the two monkeys so trained and habituated was about 100 to 150 lever pushes per two hour session at the 100 microgram codeine level. […]

[7] = system: mice; assay type: in vivo; conditions: naloxone 100 mg/kg intraperitoneal after last dose
Procedure: Physical dependency liability was evaluated in mice by the procedure of Saelens, et al., Arch. Int. Pharmacodynam, 190:213-218, 1971. In this procedure, mice are administered increasing doses of a test compound at intervals on two consecutive days. The last dosage on the second day is followed by intraperitoneal injection of the morphine antagonist, naloxone, at a dosage of 100 mg/kg, and the mice are observed for characteristic jumping behaviour indicative of opiate withdrawals or morphine antagonism.

[8] = Acute lethality in mice; conditions: mouse, in vivo, oral, mortality within 72 hours
Procedure: In other operations, various dosages of d,l-glaucine phosphate (2:3) were administered to groups mice by the oral route or by intraperitoneal injection, and the dosage which is lethal to 50 percent of the mice (LD50) was calculated from the mortality observations within 72 hours after administration.

[9] = Therapeutic ratio LD50/ED50; assay type: in vivo; conditions: mouse LD50, guinea pig ED50
[10] = system: mice; experiment: Analgesic activity, phenyl-p-quinone mouse writhing test (printed "writing test"); assay type: in vivo; conditions: 0.5 h, oral, 30 minutes prior to phenyl-p-quinone challenge
Procedure: Text compounds were evaluated for analgesic activity in the phenyl-p-quinone mouse writing test of Hendershot & Forsaith, J. Pharmacol. Exptl. Therap. 125(3) 237 (1959). The test compounds were administered orally 30 minutes prior to the phenyl-p-quinone challenge. In these operations, the oral ED50 's for d-glaucine. […]

[11] = Plasma concentrations of l- or d-glaucine after oral administration; assay type: in vivo; conditions: guinea pigs
Procedure: In other operations, l- and d-glaucine phosphate (2:3) were orally administered to separate guinea pigs and plasma concentrations of l- or d-glaucine were measured at intervals after dosing.

[12] = listed as d,1-Glaucine . HBr, hydrobromide

Which results are given for `COc1cc2c(cc1OC)-c1c(OC)c(OC)cc3c1C(C2)N(C)CC3` (racemic) [d,l-glaucine hydrobromide]?
Percentage Remaining after 3 months at, 40° C. ([1]; 40° C., listed as d,1-Glaucine . HBr, hydrobromide): 93.3 Percentage; Percentage Remaining after 3 months at, 50° C. [1, 12]: 91.4 Percentage; Percentage Remaining after 3 months at, Ambient [1, 12]: 100.8 Percentage; assay after 12 months ([1]; 55° C., hydrobromide): 87.3%; percent of original concentration retained in syrup ([1]; 40° C., hydrobromide): 96%; percent of original concentration retained in syrup ([1]; 55° C., hydrobromide): 89.5%; percent of original concentration retained in syrup ([1]; ambient temperature, hydrobromide): 99%

What does the source list for `COc1cc2c(cc1OC)-c1c(OC)c(OC)cc3c1C(C2)N(C)CC3` (racemic) [d,l-glaucine phosphate, d,l-Glaucine Phosphate]?
ED50 ([2]; restated in the description, read-out: oral ED50, antitussive): 17.8 mg/kg; 95 percent confidence limits of the ED50 [2]: 6.0-53.1 milligrams per kilogram; ED50 [3]: 17.3 mg/kg; solubility [4]: 10 mg/mL; solubility in cough syrup vehicle per 5 milliliter dosage unit [4]: about 50 milligrams per 5 milliliter dosage unit; Percentage Remaining after 3 months at, 40° C. ([1]; 40° C.): 101.1 Percentage; Percentage Remaining after 3 months at, 50° C. [1]: 98.7 Percentage; Percentage Remaining after 3 months at, Ambient [1]: 101.6 Percentage; assay after 12 months ([1]; 55° C., listed as phosphate salt): 101.8%; percent of original concentration retained in syrup ([1]; 40° C.): 100.0%; percent of original concentration retained in syrup ([1]; 55° C.): 98.4%; percent of original concentration retained in syrup ([1]; ambient temperature): 101.3%; assay of syrup in amber glass bottles ([5]; amber glass): 97.7%; assay of syrup in transparent (flint) glass bottles ([5]; flint glass): 90%; monkey response rate (self-administration) [6]: 10-20 responses/two hour session; mice jumping after naloxone treatment [7]: no jumping behaviour in any of the eight mice tested; LD50 at 72 h [8]: ≥ 681 mg/kg; therapeutic ratio (LD50/ED50) ([9]; intraperitoneal): 10; therapeutic ratio (LD50/ED50) ([9]; oral antitussive activity): 38; ED50 [10]: 23 mg/kg

For `COc1ccc2c3c1O[C@H]1[C@@H](O)C=C[C@H]4[C@@H](C2)N(C)CC[C@@]341` [codeine phosphate], which “95 percent confidence limits of the ED50” value [2] is on record?
Its value is 52.3-232.6 milligrams per kilogram.

What about the “Percentage Remaining after 3 months at, 40° C.” value ([1]; 40° C.) of the same molecule?
The value was 101.1 Percentage.

And the “Percentage Remaining after 3 months at, 50° C.” value [1]?
Its value is 88.4 Percentage.

And the “Percentage Remaining after 3 months at, Ambient” value [1]?
The value was 101.3 Percentage.

And the “percent of original concentration retained in syrup” value (from here on “percent … in syrup”) ([1]; 40° C.)?
Its value is 104.5%.

What about the “percent … in syrup” value ([1]; 55° C.) of the same molecule?
Its value is 100%.

What about the “percent … in syrup” value ([1]; ambient temperature) of the same molecule?
Its value is 97.5%.

And the “mice jumping after naloxone treatment” value [7]?
The value was 2 of 6.

And the “total jumps after naloxone treatment” value [7]?
The value was 23 jumps total.

With `COc1ccc2c3c1O[C@H]1[C@@H](O)C=C[C@H]4[C@@H](C2)N(C)CC[C@@]341` [codeine, reference compound] as the molecule, how does the “monkey response rate (self-administration)” value [6] read?
The value was 100-150 responses/two hour session.

Which “ED50, dosage effect to suppress coughing in 50 percent of the guinea pigs” value ([2]; one hour before 5 percent citric acid aerosol, 60 min) does the source give for `COc1cc2c(cc1OC)-c1c(OC)c(OC)cc3c1[C@H](C2)N(C)CC3` [d-glaucine phosphate, reference compound] here?
The value was 170.1 milligrams per kilogram.

Which results are given for `COc1cc2c(cc1OC)-c1c(OC)c(OC)cc3c1[C@@H](C2)N(C)CC3` [l-glaucine phosphate, l-glaucine phosphate (2:3)]?
ED50 ([2]; one hour before 5 percent citric acid aerosol, read-out: ED50, dosage effect to suppress coughing in 50 percent of the guinea pigs): 10.9 mg/kg; 95 percent confidence limits of the ED50 [2]: 0.4-33.8 milligrams per kilogram; time within which high plasma levels of glaucine were produced [11]: ≤ 15 min
